Here are results for one molecule from PMC8571031, “Stimulation of Ca^2+‐ATPase Transport Activity by a Small‐Molecule Drug” (Chemmedchem, 2021).

In this experiment the target is T1, sarco(endo)plasmic reticulum Ca2+-ATPase (SERCA1a isoform) (Oryctolagus cuniculus, UniProt P04191).
T1 construct: gene ATP2A1; purified SERCA1a from rabbit skeletal muscle SR in reconstituted proteoliposomes; native SR vesicles for the EC50
As to the kind of experiment: SSM electrical measurement of ATP-induced charge translocation (activation); EC50 on native SR vesicles, direct action confirmed with purified SERCA1a proteoliposomes. Format: biochemical.

T1 sequence (P04191 1-993): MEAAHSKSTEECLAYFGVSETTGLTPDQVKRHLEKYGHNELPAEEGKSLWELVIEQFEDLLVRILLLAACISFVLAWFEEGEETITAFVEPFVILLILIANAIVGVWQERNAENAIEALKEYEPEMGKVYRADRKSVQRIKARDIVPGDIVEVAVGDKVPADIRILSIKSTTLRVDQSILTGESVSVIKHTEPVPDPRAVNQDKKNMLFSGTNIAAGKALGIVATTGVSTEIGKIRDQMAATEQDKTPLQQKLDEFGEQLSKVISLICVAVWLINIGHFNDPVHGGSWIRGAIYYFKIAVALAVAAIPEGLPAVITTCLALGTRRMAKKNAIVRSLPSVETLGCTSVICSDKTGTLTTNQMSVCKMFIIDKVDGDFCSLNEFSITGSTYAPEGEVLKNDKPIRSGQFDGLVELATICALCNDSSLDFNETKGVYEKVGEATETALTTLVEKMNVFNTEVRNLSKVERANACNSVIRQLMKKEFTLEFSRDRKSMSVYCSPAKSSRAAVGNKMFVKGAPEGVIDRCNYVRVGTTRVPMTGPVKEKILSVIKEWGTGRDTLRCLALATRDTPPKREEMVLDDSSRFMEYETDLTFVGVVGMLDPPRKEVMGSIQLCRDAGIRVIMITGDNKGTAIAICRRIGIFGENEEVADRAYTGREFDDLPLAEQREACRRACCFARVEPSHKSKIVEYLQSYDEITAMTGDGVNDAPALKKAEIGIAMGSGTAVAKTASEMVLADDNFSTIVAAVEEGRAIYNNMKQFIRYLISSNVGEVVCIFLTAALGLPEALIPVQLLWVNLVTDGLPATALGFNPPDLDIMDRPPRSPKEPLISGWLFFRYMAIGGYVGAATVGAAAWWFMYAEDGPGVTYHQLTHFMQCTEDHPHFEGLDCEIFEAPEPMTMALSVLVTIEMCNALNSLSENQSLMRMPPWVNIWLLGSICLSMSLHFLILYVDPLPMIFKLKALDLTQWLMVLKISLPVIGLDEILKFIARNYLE

On to `Cc1ccc2cccc(NC(=O)c3ccc(OC(C)C)cc3)c2n1` [CDN1163], for which the EC50 (usually the concentration needed to bring the measured effect to its halfway point) worked out at 6 ± 0.3 µM.
